From patent US12415803B2, “Fused imidazopyridines as reversible inhibitors of Brutons Tyrosine Kinase (BTK)” (Merck Patent GmbH, priority 2018, dated 2025)
“And” between values parts separate entries of the source, which are not always exact repeats. Identical values can stand only once.

Columns and labels:
Btk [1] = target: T1, Btk (Homo sapiens (Human), UniProt Q06187); test: Btk PBMC IC50 Cell Assay (anti-IgM-induced CD69 expression on B cells); type: cell-based; settings: anti-IgM-induced CD69 expression on CD19 positive cells in human PBMCs;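 note: freshly isolated human PBMCs, IC50 from concentration-response of the share of CD19+ cells expressing CD69 after anti-IgM BCR stimulation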
T1 sequence (Q06187 whole entry): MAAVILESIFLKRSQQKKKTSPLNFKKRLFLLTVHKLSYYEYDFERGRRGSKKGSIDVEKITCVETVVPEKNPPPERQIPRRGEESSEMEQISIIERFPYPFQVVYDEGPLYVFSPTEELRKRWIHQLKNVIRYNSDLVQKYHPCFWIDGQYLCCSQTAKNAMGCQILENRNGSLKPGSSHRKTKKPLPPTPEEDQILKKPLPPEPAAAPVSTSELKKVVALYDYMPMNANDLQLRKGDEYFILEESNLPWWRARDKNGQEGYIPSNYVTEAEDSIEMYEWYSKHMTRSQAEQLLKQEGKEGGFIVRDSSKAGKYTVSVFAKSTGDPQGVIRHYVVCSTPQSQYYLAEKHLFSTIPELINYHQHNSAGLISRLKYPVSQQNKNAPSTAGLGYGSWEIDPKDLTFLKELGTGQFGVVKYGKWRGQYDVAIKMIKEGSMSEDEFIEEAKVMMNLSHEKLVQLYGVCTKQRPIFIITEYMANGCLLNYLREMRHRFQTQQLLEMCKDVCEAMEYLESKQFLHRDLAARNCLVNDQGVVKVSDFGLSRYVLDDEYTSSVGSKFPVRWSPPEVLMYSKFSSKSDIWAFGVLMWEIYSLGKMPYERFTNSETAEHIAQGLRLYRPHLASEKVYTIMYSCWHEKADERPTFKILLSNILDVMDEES

full-length human BTK = full-length human BTK (Homo sapiens (Human), UniProt Q06187); test: BTK IC50 Enzyme Assay (microfluidic off-chip mobility shift kinase assay); type: biochemical; settings: Btk Enzymatic IC50 Assay, 90 min at 27 C;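 note: Read-out separates phosphorylated peptide product from substrate by their charge-to-mass difference, with IC50 fitted from log inhibitor concentration against percent enzyme activity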
full-length human BTK, sequence (Q06187 whole entry): as above

Btk [2] = target: T1, Btk; test: Time Dependent Human Whole Blood IC50 Assay; type: cell-based; settings: read-out: Assay C (IC50)

## Cc1nn(C(C)C)cc1-c1nc2nccc(-c3ccc4c(c3)CCCC[C@H]4NC(=O)c3nnc(C(C)(C)C)o3)c2[nH]1 [Compound 78, 5-tert-butyl-N-[(5R)-2-{2-[3-methyl-1-(propan-2-yl)-1H-pyrazol-4-yl]-1H-imidazo[4,5-b]pyridin-7-yl}-6,7,8,9-tetrahydro-5H-benzo[7]annulen-5-yl]-1,3,4-oxadiazole-2-carboxamide]
Btk [1]
  IC50: 1 to 10 nM
full-length human BTK
  IC50: < 1 nM
Btk [2]
  IC50: 1 to 10 nM

## Cc1c(-c2nc3nccc(-c4ccc5c(c4)CCCC[C@H]5NC(=O)c4nnc(C(C)(C)C)o4)c3[nH]2)cnn1C1CCOCC1 [Compound 79, 5-tert-butyl-N-[(5R)-2-{2-[5-methyl-1-(oxan-4-yl)-1H-pyrazol-4-yl]-1H-imidazo[4,5-b]pyridin-7-yl}-6,7,8,9-tetrahydro-5H-benzo[7]annulen-5-yl]-1,3,4-oxadiazole-2-carboxamide]
Btk [1]
  IC50: 1 to 10 nM
full-length human BTK
  IC50: < 1 nM
Btk [2]
  IC50: 10 to 100 nM and 1 to 10 nM

## CC(C)n1cc(-c2nc3nccc(-c4ccc5c(c4)CCCC[C@@H]5NC(=O)c4nc(C(C)(C)C)no4)c3[nH]2)cn1 [Compound 81, 3-tert-butyl-N-[(5S)-2-{2-[1-(propan-2-yl)-1H-pyrazol-4-yl]-1H-imidazo[4,5-b]pyridin-7-yl}-6,7,8,9-tetrahydro-5H-benzo[7]annulen-5-yl]-1,2,4-oxadiazole-5-carboxamide]
Btk [1]
  IC50: 10 to 100 nM
full-length human BTK
  IC50: 1 to 10 nM
Btk [2]
  IC50: 10 to 100 nM

## CC(C)(C)c1noc(C(=O)NC2CCCCc3cc(-c4ccnc5[nH]c(-c6cnn(C7CC7)c6)nc45)ccc32)n1 (stereo not drawn) [Compound 83, 3-tert-butyl-N-{2-[2-(1-cyclopropyl-1H-pyrazol-4-yl)-3H-imidazo[4,5-b]pyridin-7-yl]-6,7,8,9-tetrahydro-5H-benzo[7]annulen-5-yl}-1,2,4-oxadiazole-5-carboxamide]
Btk [1]
  IC50: 1 to 10 nM
full-length human BTK
  IC50: < 1 nM
Btk [2]
  IC50: 1 to 10 nM

## CCc1cc(-c2nc3nccc(-c4ccc5c(c4)CCCC[C@@H]5NC(=O)c4nnc(C(C)(C)C)o4)c3[nH]2)nn1C [Compound 89, 5-tert-butyl-N-[(5S)-2-[2-(5-ethyl-1-methyl-1H-pyrazol-3-yl)-1H-imidazo[4,5-b]pyridin-7-yl]-6,7,8,9-tetrahydro-5H-benzo[7]annulen-5-yl]-1,3,4-oxadiazole-2-carboxamide]
Btk [1]
  IC50: 1 to 10 nM
full-length human BTK
  IC50: < 1 nM
Btk [2]
  IC50: 1 to 10 nM

## CC(C)n1cc(-c2nc3c(-c4ccc5c(c4)CCCCC5NC(=O)c4cc(C(C)(C)C)on4)ccnc3[nH]2)cn1 (stereo not drawn) [Compound 91, 5-tert-butyl-N-(2-{2-[1-(propan-2-yl)-1H-pyrazol-4-yl]-3H-imidazo[4,5-b]pyridin-7-yl}-6,7,8,9-tetrahydro-5H-benzo[7]annulen-5-yl)-1,2-oxazole-3-carboxamide]
Btk [1]
  IC50: 1 to 10 nM
full-length human BTK
  IC50: < 1 nM
Btk [2]
  IC50: 1 to 10 nM

## CC(C)n1cc(-c2nc3c(-c4ccc5c(c4)CCCC[C@H]5NC(=O)c4cc(C(C)(C)C)on4)ccnc3[nH]2)cn1 [Compound 92]
Btk [1]
  IC50: 1 to 10 nM
full-length human BTK
  IC50: < 1 nM
Btk [2]
  IC50: 10 to 100 nM

## Cc1cc(-c2nc3c(-c4ccc5c(c4)CCCC5NC(=O)c4nc(C(C)(C)C)no4)ccnc3[nH]2)nn1C (stereo not drawn) [Compound 107, 3-tert-Butyl-[1,2,4]oxadiazole-5-carboxylic acid {6-[2-(1,5-dimethyl-1H-pyrazol-3-yl)-3H-imidazo[4,5-b]pyridin-7-yl]-1,2,3,4-tetrahydro-naphthalen-1-yl}-amide]
Btk [1]
  IC50: 10 to 100 nM
full-length human BTK
  IC50: < 1 nM
Btk [2]
  IC50: 10 to 100 nM

## CCc1cc(-c2nc3c(-c4ccc5c(c4)CCCC5NC(=O)c4nc(C(C)(C)C)no4)ccnc3[nH]2)nn1C (stereo not drawn) [Compound 108, 3-tert-Butyl-[1,2,4]oxadiazole-5-carboxylic acid {6-[2-(5-ethyl-1-methyl-1H-pyrazol-3-yl)-3H-imidazo[4,5-b]pyridin-7-yl]-1,2,3,4-tetrahydro-naphthalen-1-yl}-amide]
Btk [1]
  IC50: 10 to 100 nM
full-length human BTK
  IC50: < 1 nM
Btk [2]
  IC50: 10 to 100 nM

## Cc1c(-c2nc3c(-c4ccc5c(c4)CCCC5NC(=O)c4nc(C(C)(C)C)no4)ccnc3[nH]2)cnn1C (stereo not drawn) [Compound 111, 3-tert-Butyl-[1,2,4]oxadiazole-5-carboxylic acid {6-[2-(1,5-dimethyl-1H-pyrazol-4-yl)-3H-imidazo[4,5-b]pyridin-7-yl]-1,2,3,4-tetrahydro-naphthalen-1-yl}-amide]
Btk [1]
  IC50: 1 to 10 nM
full-length human BTK
  IC50: 1 to 10 nM
Btk [2]
  IC50: > 100 nM

## Cc1nn(C)c(C)c1-c1nc2c(-c3ccc4c(c3)CCCCC4NC(=O)c3nnc(C(C)(C)C)o3)ccnc2[nH]1 (stereo not drawn) [Compound 116, 5-tert-Butyl-[1,3,4]oxadiazole-2-carboxylic acid {2-[2-(1,3,5-trimethyl-1H-pyrazol-4-yl)-3H-imidazo[4,5-b]pyridin-7-yl]-6,7,8,9-tetrahydro-5H-benzocyclohepten-5-yl}-amide]
Btk [1]
  IC50: 1 to 10 nM
full-length human BTK
  IC50: 1 to 10 nM
Btk [2]
  IC50: 10 to 100 nM

## Cc1nn(C(C)C)cc1-c1nc2c(-c3ccc4c(c3)CCCCC4NC(=O)c3nnc(C(C)(C)C)o3)ccnc2[nH]1 (stereo not drawn) [Compound 118, 5-tert-Butyl-[1,3,4]oxadiazole-2-carboxylic acid {2-[2-(1-isopropyl-3-methyl-1H-pyrazol-4-yl)-3H-imidazo[4,5-b]pyridin-7-yl]-6,7,8,9-tetrahydro-5H-benzocyclohepten-5-yl}-amide]
Btk [1]
  IC50: 1 to 10 nM
full-length human BTK
  IC50: < 1 nM
Btk [2]
  IC50: 1 to 10 nM

## Cc1c(-c2nc3c(-c4ccc5c(c4)CCCCC5NC(=O)c4nnc(C(C)(C)C)o4)ccnc3[nH]2)cnn1C1CCOCC1 (stereo not drawn) [Compound 120, 5-tert-Butyl-[1,3,4]oxadiazole-2-carboxylic acid (2-{2-[5-methyl-1-(tetrahydro-pyran-4-yl)-1H-pyrazol-4-yl]-3H-imidazo[4,5-b]pyridin-7-yl}-6,7,8,9-tetrahydro-5H-benzocyclohepten-5-yl)-amide]
Btk [1]
  IC50: 1 to 10 nM
full-length human BTK
  IC50: < 1 nM
Btk [2]
  IC50: 1 to 10 nM

## Cc1nn(C)c(C)c1-c1nc2c(-c3ccc4c(c3)CCCC[C@H]4NC(=O)c3nnc(C(C)(C)C)o3)ccnc2[nH]1 [Compound 121, 5-tert-Butyl-[1,3,4]oxadiazole-2-carboxylic acid {(R)-2-[2-(1,3,5-trimethyl-1H-pyrazol-4-yl)-3H-imidazo[4,5-b]pyridin-7-yl]-6,7,8,9-tetrahydro-5H-benzocyclohepten-5-yl}-amide]
Btk [1]
  IC50: 1 to 10 nM
full-length human BTK
  IC50: < 1 nM
Btk [2]
  IC50: 10 to 100 nM

## Cc1nn(C)c(C)c1-c1nc2c(-c3ccc4c(c3)CCCC[C@H]4NC(=O)c3nc(C4(C)CC4)no3)ccnc2[nH]1 [Compound 123, 3-(1-Methyl-cyclopropyl)-[1,2,4]oxadiazole-5-carboxylic acid {(R)-2-[2-(1,3,5-trimethyl-1H-pyrazol-4-yl)-3H-imidazo[4,5-b]pyridin-7-yl]-6,7,8,9-tetrahydro-5H-benzocyclohepten-5-yl}-amide]
Btk [1]
  IC50: 1 to 10 nM
full-length human BTK
  IC50: < 1 nM
Btk [2]
  IC50: 1 to 10 nM

## CCc1cc(-c2nc3c(-c4ccc5c(c4)CCCCC5NC(=O)c4nnc(C(C)(C)C)o4)ccnc3[nH]2)nn1C (stereo not drawn) [Compound 131, 5-tert-Butyl-[1,3,4]oxadiazole-2-carboxylic acid {2-[2-(5-ethyl-1-methyl-1H-pyrazol-3-yl)-3H-imidazo[4,5-b]pyridin-7-yl]-6,7,8,9-tetrahydro-5H-benzocyclohepten-5-yl}-amide]
Btk [1]
  IC50: 1 to 10 nM
full-length human BTK
  IC50: < 1 nM
Btk [2]
  IC50: 10 to 100 nM

## Cc1nn(C(C)C)cc1-c1nc2c(-c3ccc4c(c3)CCCCC4NC(=O)c3nc(C(C)(C)C)no3)ccnc2[nH]1 (stereo not drawn) [Compound 132, 3-tert-Butyl-[1,2,4]oxadiazole-5-carboxylic acid {2-[2-(1-isopropyl-3-methyl-1H-pyrazol-4-yl)-3H-imidazo[4,5-b]pyridin-7-yl]-6,7,8,9-tetrahydro-5H-benzocyclohepten-5-yl}-amide]
Btk [1]
  IC50: 1 to 10 nM
full-length human BTK
  IC50: 1 to 10 nM
Btk [2]
  IC50: 1 to 10 nM

## CCc1cc(-c2nc3c(-c4ccc5c(c4)CCCCC5NC(=O)c4nc(C(C)(C)C)no4)ccnc3[nH]2)nn1C (stereo not drawn) [Compound 133, 3-tert-Butyl-[1,2,4]oxadiazole-5-carboxylic acid {2-[2-(5-ethyl-1-methyl-1H-pyrazol-3-yl)-3H-imidazo[4,5-b]pyridin-7-yl]-6,7,8,9-tetrahydro-5H-benzocyclohepten-5-yl}-amide]
Btk [1]
  IC50: 1 to 10 nM
full-length human BTK
  IC50: < 1 nM
Btk [2]
  IC50: 1 to 10 nM

## Cc1nn(C(C)C)cc1-c1nc2c(-c3ccc4c(c3)CCCCC4NC(=O)c3nc(C4(C)CC4)no3)ccnc2[nH]1 (stereo not drawn) [Compound 134, 3-(1-Methyl-cyclopropyl)-[1,2,4]oxadiazole-5-carboxylic acid {2-[2-(1-isopropyl-3-methyl-1H-pyrazol-4-yl)-3H-imidazo[4,5-b]pyridin-7-yl]-6,7,8,9-tetrahydro-5H-benzocyclohepten-5-yl}-amide]
Btk [1]
  IC50: 1 to 10 nM
full-length human BTK
  IC50: < 1 nM
Btk [2]
  IC50: 1 to 10 nM

## CCn1nc(C)c(-c2nc3c(-c4ccc5c(c4)CCCCC5NC(=O)c4nc(C5(C)CC5)no4)ccnc3[nH]2)c1C (stereo not drawn) [Compound 135, 3-(1-Methyl-cyclopropyl)-[1,2,4]oxadiazole-5-carboxylic acid {2-[2-(1-ethyl-3,5-dimethyl-1H-pyrazol-4-yl)-3H-imidazo[4,5-b]pyridin-7-yl]-6,7,8,9-tetrahydro-5H-benzocyclohepten-5-yl}-amide]
Btk [1]
  IC50: 1 to 10 nM
full-length human BTK
  IC50: < 1 nM
Btk [2]
  IC50: 1 to 10 nM

## Cc1c(-c2nc3c(-c4ccc5c(c4)CCCCC5NC(=O)c4nc(C(C)(C)C)no4)ccnc3[nH]2)cnn1C(C)C (stereo not drawn) [Compound 136, 3-tert-Butyl-[1,2,4]oxadiazole-5-carboxylic acid {2-[2-(1-isopropyl-5-methyl-1H-pyrazol-4-yl)-3H-imidazo[4,5-b]pyridin-7-yl]-6,7,8,9-tetrahydro-5H-benzocyclohepten-5-yl}-amide]
Btk [1]
  IC50: 1 to 10 nM
full-length human BTK
  IC50: < 1 nM
Btk [2]
  IC50: 10 to 100 nM
